From US20260240842A1, “METHODS TO PREVENT THERAPY RESISTANCE IN MELANOMA VIA BLOCKING GENOMIC INSTABILITY” (THE REGENTS OF THE UNIVERSITY OF CALIFORNIA, priority 2022, published 2026) come the findings set out here.

The subject of the experiment is p-DNA-PKcs (S2056). In words: Immunofluorescence of p-DNA-PKcs (S2056) nuclear foci in early on-treatment PDX tumors. It counts as in vivo, NSG mice. To be noted: with or without MEKi; Mel_PDX1, 11 days; FIG. 13F. From the text: FIGS. 13A-13H. In vivo impacts of DNA-PKi when combined with MAPKi. FIGS. 13A and 13B: Long-term follow-up of tumor volumes (13A, BRAFi+MEKi, n=5 tumors; BRAFi+MEKi+DNA-PKi, n=6 tumors) (13B, MEKi, n=6 tumors; MEKi+DNAP-PKi, n=6 tumors) and average mice body weights for 13A and 13B. Related to experiments in FIGS. 7B and 7E, respectively. FIGS. 13C and 13D, Tumor volumes (mean±SEM) of two examples of tumor models treated short-term with vehicle or indicated single versus combined agents. Inhibitors and dosages are identical to those in FIGS. 7C and 7E, respectively. The numbers of tumors and their sizes are shown in the photographs (right) taken at the times of tumor harvest (end points). FIGS. 13E to 13G: Immunofluorescence of p-ERK (13E), p-DNA-PKcs (S2056) (13F), or γH2AX (13G) levels in Mel_PDX1 tumor model, treated with vehicle or indicated single versus combined agents for 11 days (shown in 13C). DAPI, nuclear stain. Scale bar, 50 μm (13E) and 20 μm (13F and 13G). Representative images shown for two tumors analyzed per group. Quantification of p-DNA-PKcs signals obtained by taking the average of positively stained foci per nucleus (13F, representative of 4 fields). Quantification of γH2AX signals analyzed either by percentage of cells with γH2AX foci or percentage of cells with greater than 5 γH2AX foci (13G, representative of 4 fields). […]

As for `O=c1cc(N2CCOCC2)oc2c1ccc1ccccc12` [NU7026], the “nuclear p-DNA-PKCS foci” value is reported as “suppressed nuclear p-DNA-PKCS foci”.
